Experimental data from patent publication US10899781B2, “Platinum complex, its preparation and therapeutic use” (City University of Hong Kong, priority 2018, dated 2021).

Key:
MCF-7 cells = experiment: Cytotoxicity, MTT assay; type: cell-based, human
Protocol: (§1) The biological activity of Complex A was subsequently evaluated. A2780 cells were maintained in Roswell Park Memory Institution (RPMI) 1640 medium supported with 10% FBS, 2 mM L-glutamine, and 100 unit/mL penicillin/streptomycin. MCF-7 cells were cultured in Dulbecco's modified Eagle's medium supported with 10% FBS and 100 unit/mL penicillin/streptomycin. MRC-5 cells were maintained in Eagle's minimum essential medium supported with 10% FBS, 1 mM sodium pyruvate, 2 mM L-glutamine, 1 mM non-essential amino acid and 100 unit/mL penicillin/streptomycin. All the cells were incubated in a humidified incubator at 37° C. with 5% CO2
(§2) Cytotoxicity test was performed by exposing the cancer cells with Complex A. The viability of cancer cells exposed was evaluated by means of MTT assay. Cells were seeded in 96-well plates at a density of 3,000 cells per well and incubated until the cell confluency reached 50%. Then, the medium was removed and replaced with fresh medium containing different concentrations of complexes with 1% DMF. After 8 h, the medium was aspirated, the well was washed with PBS for twice, and Earle's balanced salt solution (EBSS) was added. […] The EBSS was removed, and fresh complete cell culture medium was added to each well. After 40 h, the medium was changed to serum-free medium containing 1 mg/mL MTT. After 2 h additional incubation, the medium was removed, and DMSO (200 μL) was delivered to each well to dissolve the formed purple formazan. The absorbance at 570 nm and 730 nm of each well was measured by using a microplate reader (BioTek PowerWave XS).
(§3) The cytotoxicity of Complex A was then evaluated, using oxaliplatin and PPA as controls. Cells were treated with the compounds for 8 h, followed by irradiation or incubation in the dark, and the cell viability was measured by the MTT assay after 40 h. Complex A is non-toxic to the tested cells in the dark, and is very active under irradiation.

[1] = system: A2780 ovarian carcinoma cells; experiment: Cytotoxicity, MTT assay; type: cell-based, human; details: 8 h treatment
Protocol: as §1, §2, §3

[2] = system: A2780cisR (platinum-resistant A2780 cells); experiment: Cytotoxicity, MTT assay; type: cell-based, human; details: for IC50: A2780cisR, 8 h treatment
Protocol: as §1, §2, §3

[3] = system: MRC-5 normal human lung fibroblasts; experiment: Cytotoxicity, MTT assay; type: cell-based; details: in dark, MTT at 40 h
Protocol: as §1
Cytotoxicity test was performed by exposing the cancer cells with Complex A. The viability of cancer cells exposed was evaluated by means of MTT assay. Cells were seeded in 96-well plates at a density of 3,000 cells per well and incubated until the cell confluency reached 50%. Then, the medium was removed and replaced with fresh medium containing different concentrations of complexes with 1% DMF. […] The absorbance at 570 nm and 730 nm of each well was measured by using a microplate reader (BioTek PowerWave XS).
The cytotoxicity of Complex A was then evaluated, using oxaliplatin and PPA as controls. Cells were treated with the compounds for 8 h, followed by irradiation or incubation in the dark, and the cell viability was measured by the MTT assay after 40 h. […]

Fluorescence lifetime = type: physicochemical; details: in DMF
Excerpt: The inventors further investigated the mechanism of the reduction Complex A. No overlap was observed between the absorbance spectra of PPA and the dihydroxyl Pt(IV) compound [Pt(DACH)(OH)2(ox)]. Therefore, direct energy transfer may not occur between PPA and the Pt(IV) center. […] The normalized fluorescence intensity of PPA and Complex A is identical, and the fluorescence lifetime of Complex A is 7 ns in DMF, which is the same as PPA. […] Since PPA is able to generate reactive oxygen species (ROS) and singlet oxygen through type I and type II photo process, respectively, the inventors used a hydroxyl radical scavenger, DMSO, and a singlet oxygen scavenger, NaN3, to investigate the electron transfer process. […] Thus, without to be bound by theory, the inventors believe that hydroxy radical is involved in the reaction, and the elimination of hydroxy radical may accelerate the reaction. Furthermore, it was observed that the reduction rate is related to the water content in the system.

A2780 cells = experiment: Cellular accumulation of platinum by ICP-MS; type: cell-based, human; details: after 8 h
Protocol: FIG. 5 is a plot showing the accumulation of Complex A in A2780 cells after treatment with 0.5 μM Complex A for 1 to 12 h.
The inventors first tested the cellular accumulation of Complex A by ICP-MS. Platinum accumulation in A2780 cells increases dramatically over time before 8 h and very slowly increases over time after 8 h. Thus, an incubation time of 8 h is selected for the following biological assays.
The cellular accumulation levels of Pt in A2780 cells treated with Complex A and oxaliplatin after 8 h are 6.4±1.2 and 0.9±0.1 ng Pt/106 cells, respectively. […] The cellular distribution of Complex A was also observed.

[4] = Photoactivation (photo-reduction) of Complex A under 650 nm irradiation, HPLC; type: physicochemical; details: mixture of the compound and PPA in the presence of ascorbate
Protocol: FIG. 3 is a combined RP-HPLC chromatogram showing the intensity of Complex A and PPA after 10 μM Complex A in PBS buffer containing 1% DMF and 1 mM ascorbate was subject to irradiation at 650 nm with a power density of 7 mW/cm^2 for different time periods (from 0 min to 30 min). Peak 1 corresponds to Complex A, and Peak 2 corresponds to PPA.
FIG. 4 is a plot showing the amount of Complex A and PPA after subjecting to irradiation at 650 nm calculated from the results in FIG. 3.
The photoactivation property of Complex A was investigated. Buffer solution containing 10 μM Complex A with 1 mM ascorbate in a quartz cuvette was irradiated with LED lamp (650 nm, 7 mW/cm^2) under stirring. Samples were analyzed by HPLC. […] After irradiation for 10 min, 81% of Complex A was reduced, and most of the complex was reduced within 30 min. Irradiation of Complex A without the presence of ascorbate also leads to the release of PPA and oxaliplatin, but the reaction speed is much slower.
The inventors further investigated the mechanism of the reduction Complex A. No overlap was observed between the absorbance spectra of PPA and the dihydroxyl Pt(IV) compound [Pt(DACH)(OH)2(ox)]. […] The normalized fluorescence intensity of PPA and Complex A is identical, and the fluorescence lifetime of Complex A is 7 ns in DMF, which is the same as PPA. […]

[5] = Homo sapiens, in the dark, MTT at 40 h
[6] = Homo sapiens, light or radiation study, with irradiation at 650 nm (7 mW/cm^2) for 15 min, MTT at 40 h after irradiation
[7] = with irradiation at 650 nm (7 mW/cm^2) for 15 min, MTT at 40 h after irradiation

**Q.** Which results are given for `C=Cc1c(C)c2cc3nc(c4c5[nH]c(cc6nc(cc1[nH]2)C(C)=C6CC)c(C)c5C(=O)C4)[C@@H](CCC(=O)O)[C@@H]3C` [PPA, pyropheophorbide a]?
**A.** IC50 (MCF-7 cells; Homo sapiens, MCF7, 8 h treatment, in the dark, MTT at 40 h): > 10 µM; IC50 (MCF-7 cells; Homo sapiens, MCF7, light or radiation study, 8 h treatment, with irradiation at 650 nm (7 mW/cm^2) for 15 min, MTT at 40 h after irradiation): 0.2 ± 0.02 µM; IC50 [1, 5]: > 10 µM; IC50 [1, 6]: 0.34 ± 0.05 µM; IC50 [2, 6]: 0.23 ± 0.01 µM; IC50 [2, 5]: > 10 µM; IC50 ([3]; Homo sapiens, MRC5, 8 h treatment): > 10 µM; fluorescence lifetime (Fluorescence lifetime): 7 ns

**Q.** Which results are given for `O=C1[O][Pt]2([NH][C@@H]3CCCC[C@H]3[NH]2)[O]C1=O` [Oxaliplatin, oxaliplatin]?
**A.** IC50 (MCF-7 cells; 8 h treatment, in the dark, MTT at 40 h): 110 ± 4.3 µM; IC50 (MCF-7 cells; 8 h treatment, with irradiation at 650 nm (7 mW/cm^2) for 15 min, MTT at 40 h after irradiation): 78.6 ± 8.7 µM; IC50 ([1]; in the dark, MTT at 40 h): > 40 µM; IC50 [1, 7]: > 40 µM; IC50 ([2]; in the dark, MTT at 40 h): 162 ± 9 µM; IC50 [2, 7]: 185 ± 8 µM; resistant factor ([2]; IC50 towards cisplatin-resistant cells divided by IC50 towards non-resistant cells (A2780cisR / A2780)): 2.7; IC50 ([3]; 8 h treatment): 122 ± 5.2 µM; cellular accumulation levels of Pt (A2780 cells): 0.9±0.1 ng Pt/106 cells

**Q.** Which reduction under irradiation [4] does the source give for “[Pt(DACH)(OH)2(ox)] [[(Pt(DACH)(OH)2(ox))]]” here?
**A.** The reduction under irradiation was “cannot be reduced”.
